Data reported in patent US6127409A, “Ascorbic acid derivative and vitamin C preparation containing the same” (priority 1997, dated 2000).
Counter-ions that a name gives are not always drawn. Like-named read-outs stand apart in the source and are kept apart here.

How the values were obtained:
[1] = Stability: residual ratio (concentration after storage/initial concentration) by HPLC after standing at room temperature for 10 days; assay type: physicochemical; details: water
Description: Then, their residual ratios (concentration after storage/initial concentration) were determined by HPLC through a column Shodex Asahipak NH2P-50 4E (trade name, manufactured by Showa Denko KK) to evaluate stability.

[2] = system: normal human adult mamma epidermal Keratinocyte; assay type: cell-based; details: 20 hours culture
Description: About 6×10^5 cells of a normal human adult mamma epidermal Keratinocyte (available from Kurashiki Boseki KK) were sowed on a 60 mm plate and cultured in a serum-free culturing medium (manufactured by Kurashiki Boseki KK) for 2 hours, and after displacing with the same culturing medium having added thereto from 2 to 50 μM of an ascorbic acid or a derivative thereof, further cultured for 20 hours. The cells were collected by trypsin treatment, and the number of cells was counted by a Coulter Counter Model DN (trade name, manufactured by Coulter Electronics). The cells thus collected were washed with Hank's equilibrium salt solution, pulverized in an ultrasonic homogenizer, filtered through a Mol-cut II (UFPlLCC) (trade name, produced by Nippon Milipore KK) and analyzed by HPLC through a column Shodex Asahipak NH2P-50 4E (trade name, produced by Showa Denko KK). The amount of ascorbic acid and derivatives thereof was measured to determine the intracellular cumulative amount. As a control, culturing was performed in the same manner as above except for not adding ascorbic acid or a derivative thereof, and the ascorbic acid was quantitatively determined. The difference in the intracellular ascorbic acid cumulative amount between the case where ascorbic acid or a derivative thereof was added and the case where ascorbic acid or a derivative thereof was not added is shown in Table 2. […]

remaining at 240 h, 2000 µM [1] | SMILES | remaining at 240 h, 2000 µM ([1]; 2 mM aqueous solution, room temperature, 10 days, HPLC, read-out: Stability (residual ratio: concentration after storage/initial concentration)) | Intracellular Cumulative Amount (difference from not added) ([2]; addition amount 2 μM) | Intracellular Cumulative Amount (difference from not added) ([2]; addition amount 50 μM)
98% | CCCCCCCCCCCCCCCC(=O)OC[C@H](O)[C@H]1OC(=O)C(OP(=O)(O)O)=C1O [L-Ascorbic acid-2-phosphate-6-palmitate magnesium salt] | – | – | –
– | O=C1O[C@H]([C@@H](O)CO)C(O)=C1OP(=O)([O-])[O-].[Mg+2] [L-Ascorbic acid-2-phosphate magnesium salt] | 97% | < 0.0002 Pmole/cell | 0.0022 Pmole/cell
